{"source": "patent US9623084B2", "about": "“Methods for treating multiple sclerosis” (UNIVERSITY OF SOUTHERN CALIFORNIA, priority 2013, dated 2017)", "key": {"[1]": {"system": "MOG-EAE in C57BL/6 mice (chronic progressive model of MS)", "assay": "A(1-7) treatment in the chronic progressive MOG-EAE model of MS", "type": "in vivo", "details": "for disease course (clinical scores): vs control non-treated immunized mice, up to 50 days post immunization"}, "[2]": {"system": "PLP-EAE in SJL/J mice (relapsing-remitting model of MS)", "assay": "A(1-7) treatment in the relapsing-remitting PLP-EAE model of MS", "type": "in vivo", "details": "FIG. 1C", "description": "Multiple Sclerosis (MS) is a chronic autoimmune and neurodegenerative disease of the central nervous system (CNS) that is characterized by focal infiltration of leukocytes, including myelin-specific T cells, into the CNS, resulting destruction of myelin, demyelination, oxidative stress, axonal loss and ultimately, clinical symptoms and neurological disability. Experimental autoimmune encephalomyelitis (EAE) is a well-established animal model of MS that mimics many of the features of MS. We evaluated the ability of angiotensin peptide A(1-7) to modulate EAE disease course. For this study we used two common EAE models to study the efficacy of A(1-7), one that replicates the chronic progressive form of MS and the other that follows a relapsing-remitting course of the disease. Mice were immunized with peptides corresponding to major immunodominant regions of two myelin proteins: myelin oligodendrocyte protein 35-55 (MOG-EAE) immunization in C57BL6 mice to induce a chronic progressive disease, or proteolipid protein 139-151 (PLP-EAE) immunization in SJL/J mice induced a relapsing-remitting disease.\nFemale SJL/J mice, 10-weeks-old, were immunized subcutaneously in 4 sites on their flank (approximately 50 μl each) with 120 μg PLP-139-151 peptide emulsified in 200 μl CFA at baseline. Mice were anesthetized (as described for MOG-EAE) for the immunizations. SJL/J mice are highly susceptible to EAE induction by this method and require only one immunization to achieve disease in 90-100% of mice.\nPLP-EAE is a relapsing form of disease in which the first acute attack of neurological symptoms occurs at approximately 10-13 days after immunization, peaks between day 15 and 18, is followed by a period of recovery, or remission for about 10 days. 25-40 days after immunization ˜75% of mice develop a second wave of paralysis (relapse). Relapses are often less severe and of shorter duration than the first attack. PLP-EAE mimics the relapsing-remitting form of MS. […]"}, "[3]": {"system": "Normal human progenitor cells (neurosphere cultures)", "assay": "A(1-7) treatment in in vitro neurosphere cultures", "type": "cell-based", "experimental": "Normal human progenitor cells were purchased from Clonetics (San Diego, Calif.) and cultured in Neural Progenitor Cell Maintenance Medium (NPMM) [Neural Progenitor Basal Medium containing human recombinant fibroblast growth factor-beta, human recombinant epidermal growth factor, neural survival factors, gentamycin and amphotericin B)]. The cells were thawed, diluted into NPMM and cultured for 24 hours in a 75 cm^2 flask. Until studies to assess differentiation, the cells were cultured in dedifferentiated spheroids.\nIn order to assess the differentiation of neuronal cells, the cells were seeded upon wells coated with 0.05% polyethyleneimine (PEI) substrate in borate buffer solution. The wells of a 96 well plate were coated with 0.05 ml of this solution overnight at room temperature. After the incubation, the substrate was removed by aspiration, rinsed with sterile water and allowed to dry before seeding of cells. Four days after plating, the number of cells undergoing differentiation, as assessed by neurite outgrowth) was counted"}, "[4]": {"details": "treatment started 10 days after immunization, vs control non-treated immunized mice"}}, "data": [{"substance": "Asp-Arg-Val-Tyr-Ile-His-Pro (DRVYIHP) [A(1-7), angiotensin peptide A(1-7)]", "values": [{"measurement": "disease progression and severity", "setting": "[1]; 1 mg/kg/day continuous delivery (Alzet pump) vs control, started day 11, FIG. 3", "value": "highly effective at inhibiting disease progression and maintaining reduced severity of the disease"}, {"measurement": "restoration from disability", "setting": "[1]; 2 mg/kg/day continuous delivery vs control saline treated mice, FIG. 3 and FIG. 4A", "value": "promotes restoration from disability"}, {"measurement": "clinical disease score", "setting": "[1]; all doses, twice daily injection, vs control saline treated mice, started day 11, FIG. 2", "value": "improved clinical disease score"}, {"measurement": "disease course (clinical scores)", "setting": "[1]; once daily sc 0.5 mg/kg A(1-7) from day 10, FIG. 1A", "value": "less severe disease course"}, {"measurement": "clinical disease score, dose comparison", "setting": "[1]; twice daily injection, total of 1.2 or 4 mg/kg/day vs 0.5 mg/kg/day, started day 11, FIG. 2", "value": "more effective in reducing clinical disease score than 0.5 mg/kg/day"}, {"measurement": "disease course (clinical scores)", "setting": "[1]; twice daily sc 0.5 mg/kg A(1-7) from day 10, FIG. 1B", "value": "less severe disease course"}, {"measurement": "disease course (disability) with duration of treatment", "setting": "[2]; PLP-EAE SJL mice, increasing duration of treatment", "value": "improves disease course (less disability) with increasing duration of treatment"}, {"measurement": "disease severity", "setting": "[2]; [4]", "value": "the disease was less severe"}, {"measurement": "onset of disease", "setting": "[2]; [4]", "value": "delayed onset of disease"}, {"measurement": "neurite outgrowth and proliferation", "setting": "[3]; PEI-coated wells, counted four days after plating, increasing doses of A(1-7), FIG. 4", "value": "promotes neurite outgrowth and proliferation with increasing doses of A(1-7)"}, {"measurement": "number of cells able to undergo differentiation (proliferation)", "setting": "[3]; suspension culture in the presence of A(1-7) for 4-7 days prior to placement on an adherent substrate", "value": "an increase in the number of cells able to undergo differentiation (proliferation)"}]}]}
